Experimental data reported in patent US8658668B2, “PI3 kinase/mTOR dual inhibitor” (Eli Lilly and Company, priority 2011, dated 2014).

Key:
AKT1(pT308) = assay: AlphaScreen SureFire p-AKT (Thr308) in U87MG cells; format: cell-based; details: Homo sapiens, U-87 MG, 1 h, n = 4, read-out: AKT1(pT308) Absolute IC50
Protocol: This homogeneous assay format uses immuno-sandwich capture of the phosphorylated analyte and then detection with antibody-coated Alphascreen beads to generate an amplified signal.
Maintain U87MG cells in U87MG growth medium consisting of DMEM (GIBCO 11965-092) supplemented with 10% fetal bovine serum (FBS, GIBCO, 10091-141), 1% nonessential amino acids (GIBCO, 11140-050) and 1% sodium pyruvate (GIBCO, 11360-070). Harvest cells using standard cell culture procedures and then count using Vi-Cell. Plate 100 μL of U87MG cells in growth medium (50,000 cells/well) into Costar #3596 96 well plates and incubate overnight at 37° C., 5% CO2.
Incubate for one h at 37° C., then remove the medium and add 50 μL of 1× SureFire Lysis Buffer (TGR Biosciences SureFire® Kit component) to each well and incubate at room temperature for 10 min with gentle shaking Transfer 6 μL lysate and 10 μL reaction mixture (60 parts reaction buffer/10 parts activation buffer/1 part each of donor and acceptor beads, Perkin Elmer, 6760617R) to a 384 well proxiplate (Perkin Elmer, 6006280) for the p-p70S6 kinase (Thr389) and p-AKT(Ser473) assays. Seal the plate and incubate at RT for 4 h. […] Read the plates on a Perkin Elmer EnVision equipped with a TurboModule using standard AlphaScreen® settings (Ex680 nm and Em520-620 nm). […]

[1] = test system: BXF 1218 human tumor xenograft cells; assay: Oncotest tumor clonogenic assay, BXF 1218; format: cell-based; details: colony formation, Bladder BXF 1218, transitional cell carcinoma, read-out: Absolute IC50
[2] = test system: GXF 209 human tumor xenograft cells; assay: Oncotest tumor clonogenic assay, GXF 209; format: cell-based; details: colony formation, Gastric GXF 209, signet-ring cell carcinoma, ud, read-out: Absolute IC50
[3] = test system: HNXF 908 human tumor xenograft cells; assay: Oncotest tumor clonogenic assay, HNXF 908; format: cell-based; details: colony formation, Head and Neck HNXF 908, squamous epithelium carcinoma, md, read-out: Absolute IC50
[4] = test system: PRXF DU145 human tumor xenograft cells; assay: Oncotest tumor clonogenic assay, PRXF DU145; format: cell-based; details: DU-145, colony formation, Prostate PRXF DU145, adeno carcinoma, ud, read-out: Absolute IC50
[5] = test system: RXF 393 human tumor xenograft cells; assay: Oncotest tumor clonogenic assay, RXF 393; format: cell-based; details: colony formation, Renal RXF 393, hypernephroid carcinoma, pd, read-out: Absolute IC50
[6] = test system: human glioblastoma cells U87MG; assay: Xenograft tumor model, U87MG; format: in vivo, mouse; details: oral gavage
Protocol: Expand human glioblastoma cells U87MG and human renal carcinoma cells 786-O, in culture, harvest and inject subcutaneously onto the rear flank of athymic nude mice. Expand human non-small cell lung cancer cells NCI-H1975 in culture, harvest and inject subcutaneously onto the rear flank of CD-1 nu/nu mice. Prepare test compound in an appropriate vehicle and administer by oral gavage when tumors are established (7-21 days after implant). Tumor response is determined by tumor volume measurement performed twice a week during the course of treatment. Body weight is taken as a general measurement of toxicity.

pT389 p70S6K = assay: In vivo target inhibition in U87MG tumors, pT389 p70S6K; details: Mus musculus, U-87 MG; for inhibition at 0.5 mg/kg: 0.5 mg/kg oral; for inhibition at 1.5 mg/kg: 1.5 mg/kg oral; for inhibition at 3 mg/kg: 3 mg/kg oral; for inhibition at 6 mg/kg: 6 mg/kg oral; for inhibition at 10 mg/kg: 10 mg/kg oral; for inhibition at 12 mg/kg: 12 mg/kg oral
Protocol: Implant U87MG human glioblastoma cells (5×10^6) subcutaneously into the flank of athymic nude mice in 0.2 mL of matrigel. Ten days post-implantation, dose mice orally according to a time course, single dose/single time point, or dose response protocol for the determination of TMED50 (threshold minimum effective dose). Flash freeze tumors at harvest and collect blood for the determination of parent compound plasma exposure and the calculation of TMEC50 (threshold minimum effective concentration) in the case of dose response studies. Homogenize tumors in 500 μL of XY Lysis Buffer (10 μg/mL Leupeptin, 10 μg/mL Trypsin-Chymotrypsin Inhibitor, 10 μg/mL Tosyl phenyl-alanyl chloromethyl ketone, 10 μg/mL Aprotinin, 60 mM Beta-Glycerol Phosphate, 1% Triton X100, 25 mM Tris pH 7.5, 2.5 mM Pyrophosphate, 150 mM NaCl, 2 mM p-tosyl-L-arginine methyl ester, 15 mM para-nitrophenyl phosphate, 5 mM benzamidine, 1 mM sodium vanadate, 10 mM sodium fluoride, 50 μg/mL phenyl-methane sulfonyl fluoride, 1 mM 1,4-dithiothreitol (DTT), 15 mM EDTA pH 8.0, 5 mM EGTA pH 8.0, 1 μM Microcystin, 1 μM Okadaic Acid, and 1 Roche Complete protease inhibitor mini-tablet per 10 mL) using RNase Free Pellet Pestle (Kimble-Kontes). Aliquot lysates and either assay immediately or store at −80° C. for later testing. Use the multiplex format of Meso Scale Discovery (Gaithersburg, Md.) ELISA technology and measure in vivo target inhibition of PI3K and mTOR to assess effects on phosphorylation of the threonine 308 site of AKT, a downstream effector of PI3K; phosphorylation on the threonine 389 site of p70 S6K and on the serine 240/244 site of S6RP, downstream effectors of mTORC1; phosphorylation of the serine 473 site of AKT, a downstream effector of mTORC2. Add 20 μg of lysate to carbon electrode containing 96-well plates pre-spotted with the appropriate capture antibodies. Probe the protein of interest using a ruthenium labeled detection antibody. Pass current over the electrode in the presence of read buffer containing the co-reactant TPA, and quantitate and record the light generated by electro-chemiluminescence with the MSD Sector 6000 instrument. Calculate percent inhibitions relative to the vehicle control group and perform ANOVA analysis using the JMP software package for the determination of statistical significance.

CO[C@@H](C)Cn1c(=O)n(C)c2cnc3ccc(-c4cncc(C(C)(C)O)c4)cc3c21 [Example 1, 8-[5-(1-Hydroxy-1-methylethyl)pyridin-3-yl]-1-[(2S)-2-methoxypropyl]-3-methyl-1,3-dihydro-2H-imidazo[4,5-c]quinolin-2-one]
IC50 (AKT1(pT308)): 106 nM | IC50 [1]: 48 nM | IC50 [2]: 184 nM | IC50 [3]: 52 nM | IC50 [4]: 269 nM | IC50 [5]: 44 nM | % TGI ([6]; 3 mg/kg BID): 38.6% | % TGI ([6]; 6 mg/kg BID): 57.7% | % TGI ([6]; 10 mg/kg BID): 86.1% | % TGI ([6]; 12 mg/kg QD): 53.4% | inhibition at 0.5 mg/kg (pT389 p70S6K; 0.5 hr post dose): 62% | inhibition at 0.5 mg/kg (pT389 p70S6K; 4 hr post dose): 7% | inhibition at 1.5 mg/kg (pT389 p70S6K; 0.5 hr post dose): 84% | inhibition at 1.5 mg/kg (pT389 p70S6K; 4 hr post dose): 38% | inhibition at 3 mg/kg (pT389 p70S6K; 0.25 hr post dose): 77% | inhibition at 3 mg/kg (pT389 p70S6K; 0.5 hr post dose): 89% | inhibition at 3 mg/kg (pT389 p70S6K; 1 hr post dose): 89% | inhibition at 3 mg/kg (pT389 p70S6K; 3 hr post dose): 77% | inhibition at 3 mg/kg (pT389 p70S6K; 4 hr post dose): 64% | inhibition at 6 mg/kg (pT389 p70S6K; 0.25 hr post dose): 88% | inhibition at 6 mg/kg (pT389 p70S6K; 0.5 hr post dose): 91% | inhibition at 6 mg/kg (pT389 p70S6K; 1 hr post dose): 90% | inhibition at 6 mg/kg (pT389 p70S6K; 2 hr post dose): 87% | inhibition at 6 mg/kg (pT389 p70S6K; 4 hr post dose): 68% | inhibition at 6 mg/kg (pT389 p70S6K; 6 hr post dose): 61% | inhibition at 6 mg/kg (pT389 p70S6K; 12 hr post dose): 14% | inhibition at 10 mg/kg (pT389 p70S6K; 0.5 hr post dose): 93% | inhibition at 10 mg/kg (pT389 p70S6K; 1 hr post dose): 92% | inhibition at 10 mg/kg (pT389 p70S6K; 2 hr post dose): 92% | inhibition at 10 mg/kg (pT389 p70S6K; 4 hr post dose): 91% | inhibition at 10 mg/kg (pT389 p70S6K; 8 hr post dose): 55% | inhibition at 12 mg/kg (pT389 p70S6K; 0.5 hr post dose): 92% | inhibition at 12 mg/kg (pT389 p70S6K; 4 hr post dose): 90%
